Measurements as given in patent US10759787B2, “Benzofuran derivative, preparation method thereof and use thereof in medicine” (Jiangsu Hengrui Medicine Co., Ltd., priority 2015, dated 2020).

Columns and labels:
[1] = test system: Pfeiffer cells; assay: In vitro anti-tumor cell growth assay (CellTiter-Glo), Pfeiffer; format: cell-based; conditions: Homo sapiens, 120 h; Pfeiffer cells (A677G mutant), 5 days; read-out: IC50 for inhibiting the growth activity of tumor cells (Pfeiffer) in vitro
Protocol: Test Example 2. Assay for Determining In Vitro Anti-Tumor Cell Growth Activity of the Example Compounds of the Present Invention
This method was used to determinate the inhibitory effect of the compounds of the present invention on the growth activity of tumor cells (Pfeiffer or WSU-DLCL2) in vitro. Pfeiffer cells carry A677G mutant, and WSU-DLCL2 cells carry Y641F mutant.
The lymphoma suspension cell line (Pfeiffer or WSU-DLCL2) was cultured in a RPMI-1640 medium containing 10% inactivated Fetal Bovine Serum, 100 U/mL penicillin, and 100 μg/mL streptomycin, and incubated in an incubator with 5% carbon dioxide at 37° C. under a saturated humidity condition, and passaged every 3-4 days.
A cell sudpension was prepared with a fresh cell medium, added to a 96-well cell culture plate at 8000 cells/well (Pfeiffer) or 2000 cells/well (WSU-DLCL2), and incubated in 5% carbon dioxide at 37° C. incubator overnight. On the day of the experiment, the EZH2 test compounds (final concentration: 20000, 2000, 200, 20, 2, 0.2 nM) were added into the experimental wells for 3 parallel wells per group. A control well with the medium alone but without cells was set up to obtain the background luminescent value. The cell culture plate was incubated in an incubator with 5% carbon dioxide at 37° C. for 5 days.
After the compounds were applied to the cells for 5 days, the cell culture plate was placed at room temperature for 30 minutes, then a CellTiter-Glo reagent equal to the volume of cell culture medium was added to each well. The contents were mixed on a shaker for 10 minutes, and the […] signal values were recorded. The cell growth inhibition rate was calculated, and the formula was: cell growth inhibiton rate=[(negative control control−experimental group)/(negative control group−background luminescent value)]×100%. The IC50 values (half inhibition rate IC50, i.e., a drug concentration that is required for 50% cell growth inhibition rate) were calculated by software from the cell growth inhibiton rate and the corresponding concentration.

[2] = biological target: EZH2-A677G (Homo sapiens (Human), UniProt Q15910, A677G); assay: EZH2-A677G mutant enzyme activity assay (HTRF); format: biochemical; conditions: read-out: IC50 for inhibiting the activity of enzyme EZH2-A677G
Sequence of EZH2-A677G (Q15910 whole entry A677G): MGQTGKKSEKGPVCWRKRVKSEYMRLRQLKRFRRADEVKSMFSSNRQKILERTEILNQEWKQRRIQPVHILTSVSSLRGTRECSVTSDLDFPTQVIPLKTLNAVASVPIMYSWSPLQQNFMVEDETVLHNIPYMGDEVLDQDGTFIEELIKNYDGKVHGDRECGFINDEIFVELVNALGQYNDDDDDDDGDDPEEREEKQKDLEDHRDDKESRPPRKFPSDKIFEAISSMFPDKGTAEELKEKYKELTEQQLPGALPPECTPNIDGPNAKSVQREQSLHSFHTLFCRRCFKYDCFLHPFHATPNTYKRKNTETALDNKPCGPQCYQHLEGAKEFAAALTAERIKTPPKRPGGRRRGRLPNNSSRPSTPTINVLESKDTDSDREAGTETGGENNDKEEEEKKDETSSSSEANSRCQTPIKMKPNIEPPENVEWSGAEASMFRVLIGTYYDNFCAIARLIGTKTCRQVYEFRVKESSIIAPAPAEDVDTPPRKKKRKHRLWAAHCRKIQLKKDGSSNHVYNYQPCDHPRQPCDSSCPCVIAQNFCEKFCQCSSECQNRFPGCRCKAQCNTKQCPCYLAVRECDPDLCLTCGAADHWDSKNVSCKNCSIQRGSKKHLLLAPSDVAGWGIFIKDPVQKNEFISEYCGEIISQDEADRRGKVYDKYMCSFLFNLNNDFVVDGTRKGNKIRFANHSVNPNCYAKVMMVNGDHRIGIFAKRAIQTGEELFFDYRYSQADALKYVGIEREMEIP
Sequence of EZH2-A677G (O75530 whole entry partner): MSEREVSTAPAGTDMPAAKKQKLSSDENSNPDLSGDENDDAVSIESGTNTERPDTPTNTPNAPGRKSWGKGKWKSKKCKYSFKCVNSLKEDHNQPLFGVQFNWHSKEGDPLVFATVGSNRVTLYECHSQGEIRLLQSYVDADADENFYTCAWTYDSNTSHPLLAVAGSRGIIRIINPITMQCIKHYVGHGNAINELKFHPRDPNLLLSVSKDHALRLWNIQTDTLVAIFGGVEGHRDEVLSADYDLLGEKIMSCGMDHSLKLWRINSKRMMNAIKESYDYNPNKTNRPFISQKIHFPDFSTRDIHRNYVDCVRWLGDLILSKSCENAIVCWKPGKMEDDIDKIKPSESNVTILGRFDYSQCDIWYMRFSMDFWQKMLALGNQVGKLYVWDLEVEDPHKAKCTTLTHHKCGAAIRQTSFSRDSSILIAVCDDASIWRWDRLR
Sequence of EZH2-A677G (Q15022 whole entry partner): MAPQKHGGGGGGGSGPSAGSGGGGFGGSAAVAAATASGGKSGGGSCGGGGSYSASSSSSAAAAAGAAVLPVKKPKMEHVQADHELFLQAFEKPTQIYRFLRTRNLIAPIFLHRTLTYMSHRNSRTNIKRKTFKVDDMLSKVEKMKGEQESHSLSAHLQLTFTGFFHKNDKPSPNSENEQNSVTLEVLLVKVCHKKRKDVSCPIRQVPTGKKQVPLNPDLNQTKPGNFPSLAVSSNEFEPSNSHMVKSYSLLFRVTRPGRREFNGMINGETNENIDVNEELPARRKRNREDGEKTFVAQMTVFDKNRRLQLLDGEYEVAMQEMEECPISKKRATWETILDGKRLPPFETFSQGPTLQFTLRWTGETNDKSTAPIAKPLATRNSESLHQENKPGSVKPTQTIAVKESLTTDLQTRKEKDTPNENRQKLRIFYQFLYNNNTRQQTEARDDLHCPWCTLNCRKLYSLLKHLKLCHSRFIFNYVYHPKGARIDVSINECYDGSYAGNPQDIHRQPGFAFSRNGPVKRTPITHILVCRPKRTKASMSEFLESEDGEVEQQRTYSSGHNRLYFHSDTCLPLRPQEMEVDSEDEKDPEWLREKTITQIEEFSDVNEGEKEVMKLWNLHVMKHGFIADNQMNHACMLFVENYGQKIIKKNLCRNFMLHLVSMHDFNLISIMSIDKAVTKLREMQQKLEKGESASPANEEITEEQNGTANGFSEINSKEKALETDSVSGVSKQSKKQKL
Sequence of EZH2-A677G (Q09028 whole entry partner): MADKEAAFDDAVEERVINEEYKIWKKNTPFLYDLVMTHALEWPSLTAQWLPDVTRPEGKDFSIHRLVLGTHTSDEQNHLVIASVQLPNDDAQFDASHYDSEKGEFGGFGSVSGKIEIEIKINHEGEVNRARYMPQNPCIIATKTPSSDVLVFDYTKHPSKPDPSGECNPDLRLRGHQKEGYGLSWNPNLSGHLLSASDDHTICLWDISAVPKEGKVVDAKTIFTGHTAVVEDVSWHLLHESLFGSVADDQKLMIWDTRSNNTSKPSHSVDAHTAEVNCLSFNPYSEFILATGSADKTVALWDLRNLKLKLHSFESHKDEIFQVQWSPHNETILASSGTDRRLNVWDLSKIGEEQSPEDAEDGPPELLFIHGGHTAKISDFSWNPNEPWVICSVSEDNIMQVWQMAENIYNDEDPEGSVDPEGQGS
Sequence of EZH2-A677G (Q6ZN18 whole entry partner): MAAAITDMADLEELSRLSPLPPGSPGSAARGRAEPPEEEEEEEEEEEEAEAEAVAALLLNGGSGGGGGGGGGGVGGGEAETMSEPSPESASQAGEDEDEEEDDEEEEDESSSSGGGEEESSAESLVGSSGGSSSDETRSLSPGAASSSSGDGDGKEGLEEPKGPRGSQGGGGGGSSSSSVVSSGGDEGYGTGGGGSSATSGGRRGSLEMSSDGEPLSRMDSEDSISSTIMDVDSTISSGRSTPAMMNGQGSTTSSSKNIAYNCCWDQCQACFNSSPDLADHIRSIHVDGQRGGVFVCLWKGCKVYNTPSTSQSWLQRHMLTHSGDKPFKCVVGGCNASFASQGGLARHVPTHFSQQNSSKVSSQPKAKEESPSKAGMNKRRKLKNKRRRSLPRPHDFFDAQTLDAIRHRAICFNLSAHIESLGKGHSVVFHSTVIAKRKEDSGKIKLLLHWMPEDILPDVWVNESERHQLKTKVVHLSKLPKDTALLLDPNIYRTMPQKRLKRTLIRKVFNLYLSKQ
Protocol: Histone H3 biotin labeling and S-adenosyl methionine were respectively diluted to 50 nM and 50 μM with a kinase buffer, then added to a 384-well plate at 4 μl/well. The test compound was diluted with a kinase buffer (it was diluted from the highest concentration 30 μM in 10 fold concentration gradient to 7 concentration points), then added to the 384-well microtiter plate at 4 μl/well. The plate was incubated at room temperature for 2 hours. Histone H3K27 Me3 monoclonal antibody and Streptavidin-XL665 were diluted to 30 nM and 500 nM by HTRF detection buffer, then added to the 384-well microplate at 10 µl/well and incubated for 1 hour. A well without an EZH2 enzyme and a compound was used as a negative control, and a well with an EZH2 enzyme but without a compound was used as a positive control. […] The compound logarithm concentration vs the inhibition percentage relative to the positive control well was plotted using GraphPad Prism, then the IC50 values were calculated.

| Compound | IC50 [1] | IC50 [2] |
| --- | --- | --- |
| CCc1c(N(CC)C2CCOCC2)cc2oc(C3CCN(C(C)C)CC3)cc2c1C(=O)NCc1c(OC)cc(C)[nH]c1=O [Example 10, 5-Ethyl-6-(ethyl(tetrahydro-2H-pyran-4-yl)amino)-2-(1-isopropylpiperidin-4-yl)-N-((4-methoxy-6-methyl-2-oxo-1,2-dihydropyridin-3-yl)methyl)benzofuran-4-carboxamide] | 5 nM | 1.7 nM |
| CCc1c(N(CC)C2CCOCC2)cc2oc(CN3CCN(CC(C)(C)O)CC3)cc2c1C(=O)NCc1c(C)cc(C)[nH]c1=O [Example 11, N-((4,6-Dimethyl-2-oxo-1,2-dihydropyridin-3-yl)methyl)-5-ethyl-6-(ethyl(tetrahydro-2H-pyran-4-yl)amino)-2-((4-(2-hydroxy-2-methylpropyl)piperazin-1-yl)methyl)benzofuran-4-carboxamide] | 22 nM | 5.6 nM |
| CCc1c(N(CC)C2CCOCC2)cc2oc(C3CCCC3)cc2c1C(=O)NCc1c(C)cc(C)[nH]c1=O [Example 14, 2-Cyclopentyl-N-((4,6-dimethyl-2-oxo-1,2-dihydropyridin-3-yl)methyl)-5-ethyl-6-(ethyl(tetrahydro-2H-pyran-4-yl)amino)benzofuran-4-carboxamide] | – | 9.6 nM |
| CCN(c1cc2oc(C3CCN(C)CC3)cc2c(C(=O)NCc2c(C)cc(C)[nH]c2=O)c1C)C1CCOCC1 [Example 15, N-((4,6-Dimethyl-2-oxo-1,2-dihydropyridin-3-yl)methyl)-6-(ethyl(tetrahydro-2H-pyran-4-yl)amino)-5-methyl-2-(1-methylpiperidin-4-yl)benzofuran-4-carboxamide] | 13 nM | 16 nM |
| CCN(c1cc2oc(C3=CCN(C)CC3)cc2c(C(=O)NCc2c(C)cc(C)[nH]c2=O)c1C)C1CCOCC1 [Example 16, N-((4,6-Dimethyl-2-oxo-1,2-dihydropyridin-3-yl)methyl)-6-(ethyl(tetrahydro-2H-pyran-4-yl)amino)-5-methyl-2-(1-methyl-1,2,3,6-tetrahydropyridin-4-yl)benzofuran-4-carboxamide] | 18 nM | 31 nM |
| CCN(c1cc2occc2c(C(=O)NCc2c(OC)cc(C)[nH]c2=O)c1Cl)C1CCOCC1 [Example 22, 5-Chloro-6-(ethyl(tetrahydro-2H-pyran-4-yl)amino)-N-((4-methoxy-6-methyl-2-oxo-1,2-dihydropyridin-3-yl)methyl)benzofuran-4-carboxamide] | – | 6.5 nM |
| CCc1c(N(CC2CC2)C2CCOCC2)cc2oc(C3CC3)cc2c1C(=O)NCc1c(OC)cc(C)[nH]c1=O [Example 28, 2-Cyclopropyl-6-((cyclopropylmethyl)(tetrahydro-2H-pyran-4-yl)amino)-5-ethyl-N-((4-methoxy-6-methyl-2-oxo-1,2-dihydropyridin-3-yl)methyl)benzofuran-4-carboxamide] | 78 nM | 6.8 nM |
| CCc1c(N(CC2CC2)C2CCN(CC(F)(F)F)CC2)cc2occc2c1C(=O)NCc1c(OC)cc(C)[nH]c1=O [Example 34, 6-((Cyclopropylmethyl)(1-(2,2,2-trifluoroethyl)piperidin-4-yl)amino)-5-ethyl-N-((4-methoxy-6-methyl-2-oxo-1,2-dihydropyridin-3-yl)methyl)benzofuran-4-carboxamide] | – | 14 nM |

Next, values leading:

| IC50 [1] | IC50 [2] | Compound |
| --- | --- | --- |
| 19 nM | 14 nM | CCN(c1cc2oc(CN3CCCCC3)cc2c(C(=O)NCc2c(OC)cc(C)[nH]c2=O)c1C)C1CCOCC1 [Example 4, 6-(Ethyl(tetrahydro-2H-pyran-4-yl)amino)-N-((4-methoxy-6-methyl-2-oxo-1,2-dihydropyridin-3-yl)methyl)-5-methyl-2-(piperidin-1-ylmethyl)benzofuran-4-carboxamide] |
| 19 nM | 1.2 nM | CCc1c(N(CC)C2CCOCC2)cc2oc(CN3CCN(C(C)C)CC3)cc2c1C(=O)NCc1c(OC)cc(C)[nH]c1=O [Example 5, 5-Ethyl-6-(ethyl(tetrahydro-2H-pyran-4-yl)amino)-2-((4-isopropylpiperazin-1-yl)methyl)-N-((4-methoxy-6-methyl-2-oxo-1,2-dihydropyridin-3-yl)methyl)benzofuran-4-carboxamide] |
| 3 nM | 7.8 nM | CCc1c(N(CC)C2CCOCC2)cc2oc(CN3CCOCC3)cc2c1C(=O)NCc1c(OC)cc(C)[nH]c1=O [Example 6, 5-Ethyl-6-(ethyl(tetrahydro-2H-pyran-4-yl)amino)-N-((4-methoxy-6-methyl-2-oxo-1,2-dihydropyridin-3-yl)methyl)-2-(morpholinomethyl)benzofuran-4-carboxamide] |
| 11 nM | 3.5 nM | CCc1c(N(CC)C2CCOCC2)cc2oc(CN3CCC(F)(F)CC3)cc2c1C(=O)NCc1c(OC)cc(C)[nH]c1=O [Example 7, 2-((4,4-Difluoropiperidin-1-yl)methyl)-5-ethyl-6-(ethyl(tetrahydro-2H-pyran-4-yl)amino)-N-((4-methoxy-6-methyl-2-oxo-1,2-dihydropyridin-3-yl)methyl)benzofuran-4-carboxamide] |
| 12 nM | 6.2 nM | CCc1c(N(CC)C2CCOCC2)cc2oc(CN3CCCC3)cc2c1C(=O)NCc1c(OC)cc(C)[nH]c1=O [Example 8, 5-Ethyl-6-(ethyl(tetrahydro-2H-pyran-4-yl)amino)-N-((4-methoxy-6-methyl-2-oxo-1,2-dihydropyridin-3-yl)methyl)-2-(pyrrolidin-1-ylmethyl)benzofuran-4-carboxamide] |
| 22 nM | 10 nM | CCc1c(N(CC)C2CCOCC2)cc2oc(CN3CCN(C)CC3)cc2c1C(=O)NCc1c(OC)cc(C)[nH]c1=O [Example 12, 5-Ethyl-6-(ethyl(tetrahydro-2H-pyran-4-yl)amino)-N-((4-methoxy-6-methyl-2-oxo-1,2-dihydropyridin-3-yl)methyl)-2-((4-methylpiperazin-1-yl)methyl)benzofuran-4-carboxamide] |
| 9 nM | 2.9 nM | CCc1c(N(CC)C2CCOCC2)cc2oc(CN(C)C)cc2c1C(=O)NCc1c(OC)cc(C)[nH]c1=O [Example 13, 2-((Dimethylamino)methyl)-5-ethyl-6-(ethyl(tetrahydro-2H-pyran-4-yl)amino)-N-((4-methoxy-6-methyl-2-oxo-1,2-dihydropyridin-3-yl)methyl)benzofuran-4-carboxamide] |
| 9 nM | 9.9 nM | CCc1c(N(CC)C2CCOCC2)cc2oc(C3CCN(C)CC3)cc2c1C(=O)NCc1c(OC)cc(C)[nH]c1=O [Example 17, 5-Ethyl-6-(ethyl(tetrahydro-2H-pyran-4-yl)amino)-N-((4-methoxy-6-methyl-2-oxo-1,2-dihydropyridin-3-yl)methyl)-2-(1-methylpiperidin-4-yl)benzofuran-4-carboxamide] |
| 4 nM | 3.5 nM | CCc1c(N(CC)C2CCOCC2)cc2oc(F)cc2c1C(=O)NCc1c(OC)cc(C)[nH]c1=O [Example 27, 5-Ethyl-6-(ethyl(tetrahydro-2H-pyran-4-yl)amino)-2-fluoro-N-((4-methoxy-6-methyl-2-oxo-1,2-dihydropyridin-3-yl)methyl)benzofuran-4-carboxamide] |
| 17 nM | 2.7 nM | CCN(c1cc2oc(C(F)(F)F)cc2c(C(=O)NCc2c(OC)cc(C)[nH]c2=O)c1C)C1CCOCC1 [Example 29, 6-(Ethyl(tetrahydro-2H-pyran-4-yl)amino)-N-((4-methoxy-6-methyl-2-oxo-1,2-dihydropyridin-3-yl)methyl)-5-methyl-2-(trifluoromethyl)benzofuran-4-carboxamide] |
| 17 nM | 0.8 nM | CCN(c1cc2oc(C#N)cc2c(C(=O)NCc2c(OC)cc(C)[nH]c2=O)c1C)C1CCOCC1 [Example 30, 2-Cyano-6-(ethyl(tetrahydro-2H-pyran-4-yl)amino)-N-((4-methoxy-6-methyl-2-oxo-1,2-dihydropyridin-3-yl)methyl)-5-methylbenzofuran-4-carboxamide] |
